# Assay results taken from patent US11950592B2, “Method for enhancing plant disease controlling effects of aryl phenyl ketone fungicide, and method for controlling plant diseases” (ISHIHARA SANGYO KAISHA, LTD., priority 2016, dated 2024).
# Legend:
# Format in all cases: in vivo
# Sphaerotheca fuliginea [1] = experiment: Test Example 5: curative effect against cucumber powdery mildew; conditions: no addition
# Description: (§1) Cucumber (cultivar: Sagamihanjiro Fushinari) was cultivated in a polyethylene pot having a diameter of 7.5 cm, and when the cucumber reached 1.5 leaf stage, the leaf adaxial surface was sprayed and inoculated with a suspension of conidia of Sphaerotheca fuliginea, the cucumber was cultivated in a room at 20° C. under the light for 3 days, and a chemical solution containing pyriofenone (dosage: 90 g ai/ha) or metrafenone (300 g ai/ha) prepared with an aqueous solution containing each product (0.025 to 4.0 v/v°/0) was applied (amount of solution applied: 800 L/ha) to the leaf adaxial surface by a spray gun. After the chemical solution dried, the cucumber was cultivated in a room at 20° C. under the light for 7 days. The lesion area ratio on the first leaf was examined, and the control value was calculated based on the following formula. Control value=(1−a/b)×100
# (§2) a: lesion area ratio in treated plot, b: lesion area ratio in non-treated plot
# Sphaerotheca fuliginea [2] = experiment: Test Example 6: curative effect against cucumber powdery mildew; conditions: no addition
# Description: as §1, with “product (0.01” for “product (0.025”, “to 5.0” for “to 4.0”, “for 6” for “for 7”
# as §2
# Sphaerotheca fuliginea [3] = experiment: Test Example 7: curative effect against cucumber powdery mildew; conditions: no addition
# Description: as §1, with “product (0.02” for “product (0.025”, “to 0.07” for “to 4.0”, “for 5” for “for 7”
# as §2
# Sphaerotheca fuliginea [4] = experiment: Test Example 8: curative effect against cucumber powdery mildew; conditions: no addition
# Description: as §1, with “(0.001” for “(0.025”, “5.0” for “4.0”
# as §2
# Sphaerotheca fuliginea [5] = experiment: Test Example 9: curative effect against cucumber powdery mildew; conditions: no addition
# Description: as §1, with “(0.005” for “(0.025”, “1.0” for “4.0”
# as §2
# Sphaerotheca fuliginea [6] = experiment: Test Example 1: curative effect against cucumber powdery mildew with different temperatures; conditions: pyriofenone 90 g ai/ha, no component (b)
# Description: (§3) Cucumber (cultivar: Sagamihanjiro Fushinari) was cultivated in a polyethylene pot having a diameter of 7.5 cm, and when the cucumber reached 1.5 leaf stage, the leaf adaxial surface was sprayed and inoculated with a suspension of conidia of Sphaerotheca fuliginea, the cucumber was cultivated in a room at 20° C. or 28° C. under the light for 3 days, and a chemical solution containing pyriofenone was applied (dosage: 90 g ai/ha, amount of solution applied: 800 L/ha) to the leaf adaxial surface by a spray gun. After the chemical solution dried, the cucumber was cultivated in a room at 20° C. or 28° C. under the light for 6 days. The lesion area ratio on the adaxial surface of the first leaf was examined, and the control value was calculated based on the following formula. Control value=(1−a/b)×100
# as §2
# Sphaerotheca fuliginea [7] = experiment: Test Example 2: curative effect against cucumber powdery mildew; conditions: pyriofenone 90 g ai/ha, no addition
# Description: Cucumber (cultivar: Sagamihanjiro Fushinari) was cultivated in a polyethylene pot having a diameter of 7.5 cm, and when the cucumber reached 1.5 leaf stage, the leaf adaxial surface was sprayed and inoculated with a suspension of conidia of Sphaerotheca fuliginea, the cucumber was cultivated in a room at 20° C. under the light for 3 days, and a chemical solution containing pyriofenone prepared with an aqueous solution containing each product (0.5 v/v°/0) was applied (dosage: 90 g ai/ha, amount of solution applied: 800 L/ha) to the leaf adaxial surface by a spray gun. After the chemical solution dried, the cucumber was cultivated in a room at 20° C. under the light for 6 days. The lesion area ratio on the adaxial surface of the first leaf was examined, and the control value was calculated based on the following formula. In Tables, “no addition” means the above treatment without adding the component (b) (the same applies hereinafter). Control value=(1−a/b)×100
# as §2
# Sphaerotheca fuliginea [8] = experiment: Test Example 3: curative effect against cucumber powdery mildew; conditions: pyriofenone 90 g ai/ha, no addition
# Description: as §3, with “C.” for “C. or 28° C.”, “pyriofenone prepared with an aqueous solution containing each product (0.05 to 0.25 v/v°/0)” for “pyriofenone”, “on” for “on the adaxial surface of”
# as §2
# Sphaerotheca fuliginea [9] = experiment: Test Example 4: curative effect against cucumber powdery mildew; conditions: pyriofenone 90 g ai/ha, no addition
# Description: Cucumber (cultivar: Sagamihanjiro Fushinari) was cultivated in a polyethylene pot having a diameter of 7.5 cm, and when the cucumber reached 1.5 leaf stage, the leaf adaxial surface was sprayed and inoculated with a suspension of conidia of Sphaerotheca fuliginea, the cucumber was cultivated in a room at 20° C. under the light to for 3 days, and a chemical solution containing pyriofenone prepared with an aqueous solution containing each product (0.025 to 0.25 v/v°/0) was applied (dosage: 90 g ai/ha, amount of solution applied: 800 L/ha) to the leaf adaxial surface by a spray gun. After the chemical solution dried, the cucumber was cultivated in a greenhouse for 4 days and then cultivated in a room at 20° C. under the light for 5 days. The lesion area ratio on the first leaf was examined, and the control value was calculated based on the following formula. Control value=(1−a/b)×100
# as §2
# Sphaerotheca fuliginea [10] = experiment: Test Example 10: penetration effect against cucumber powdery mildew; conditions: pyriofenone 90 g ai/ha, no addition
# Description: (§4) Cucumber (cultivar: Sagamihanjiro Fushinari) was cultivated in a polyethylene pot having a diameter of 7.5 cm, and when the cucumber reached 1.5 leaf stage, a chemical solution containing pyriofenone (dosage: 90 g ai/ha) prepared with an aqueous solution containing each product (0.015 to 4.0 v/v %) was applied (amount of solution applied: 800 L/ha) to the leaf adaxial surface by a spray gun. After the chemical solution dried, the cucumber was cultivated in a room at 20° C. under the light for 4 days, the leaf abaxial surface was sprayed and inoculated with a suspension of conidia of Sphaerotheca fuliginea, and the cucumber was cultivated in a room at 20° C. under the light for 8 days. The lesion area ratio on the abaxial side of the first leaf was examined, and the control value was calculated based on the following formula. Control value=(1−a/b)×100
# as §2
# Oidiopsis sicula Scalia = experiment: Test Example 11: curative effect against sweet pepper powdery mildew; conditions: no addition
# From the text: Sweet pepper (cultivar: Kyonami) was cultivated in a polyethylene pot having a diameter of 7.5 cm, and when the sweet pepper reached 8.5 leaf stage, the sweet pepper was dusted and inoculated with a suspension of conidia of Oidiopsis sicula Scalia, the sweet pepper was cultivated in a greenhouse under the light for 3 days, and a chemical solution containing pyriofenone (dosage: 90 g or 110 g ai/ha) prepared with an aqueous solution containing each product (0.07 to 4.0 v/v %) was applied (amount of solution applied: 600 L/ha) to the leaf adaxial surface by a spray gun. After the chemical solution dried, the cucumber was cultivated in a greenhouse under the light for 17 days. Each of eight lower leaves was investigated, and the disease severity was calculated in accordance with the following index. Further, the control value was calculated from the disease severity.
# Disease index 0: No spore formation
# Disease index 1: Formation of lesion (spores, foot cells, conidiogenous cells) is observed on the leaf abaxial side with an area of less than 10%.
# Disease index 2: Formation of lesion (spores, foot cells, conidiogenous cells) is observed on the leaf abaxial side with an area of from 10% to 25%.
# Disease index 3: Formation of lesion (spores, foot cells, conidiogenous cells) is observed on the leaf abaxial side with an area of from 26% to 50%. […]
# Sphaerotheca fuliginea [11] = experiment: Test Example 12: curative effect against cucumber powdery mildew; conditions: pyriofenone 90 g ai/ha, no addition
# Description: as §4, with “stage, the leaf adaxial surface was sprayed and inoculated with a suspension of conidia of Sphaerotheca fuliginea, the cucumber was cultivated in a room at 20° C. under the light for 4 days, and” for “stage,”, “0.5” for “4.0”, “6” for “4 days, the leaf abaxial surface was sprayed and inoculated with a suspension of conidia of Sphaerotheca fuliginea, and the cucumber was cultivated in a room at 20° C. under the light for 8”, “on” for “on the abaxial side of”
# as §2
# Sphaerotheca fuliginea [12] = experiment: Test Example 13: penetration effect against cucumber powdery mildew; conditions: pyriofenone 90 g ai/ha, no addition
# Description: Cucumber (cultivar: Sagamihanjiro Fushinari) was cultivated in a polyethylene pot having a diameter of 7.5 cm, and when the cucumber reached 1.5 leaf stage, a chemical solution containing pyriofenone (dosage: 90 g ai/ha) prepared with an aqueous solution containing each product (0.015 to 1.0 v/v°/0) was applied (amount of solution applied: 800 L/ha) to the leaf adaxial surface by a spray gun. After the chemical solution dried, the cucumber was cultivated in a room at 20° C. under the light for 3 days, the leaf abaxial surface was sprayed and inoculated with a suspension of conidia of Sphaerotheca fuliginea, and the cucumber was cultivated in a room at 20° C. under the light for 7 days. The lesion area ratio on the abaxial side of the first leaf was examined, and the control value was calculated based on the following formula. Control value=(1−a/b)×100
# as §2
SMILES,Control value Metrafenone (Sphaerotheca fuliginea [1]; metrafenone 300 g ai/ha),Control value Metrafenone (Sphaerotheca fuliginea [2]; metrafenone 300 g ai/ha),Control value Metrafenone (Sphaerotheca fuliginea [3]; metrafenone 300 g ai/ha),Control value Metrafenone (Sphaerotheca fuliginea [4]; metrafenone 300 g ai/ha),Control value Metrafenone (Sphaerotheca fuliginea [5]; metrafenone 300 g ai/ha),Control value (Sphaerotheca fuliginea [6]; 20° C.),Control value (Sphaerotheca fuliginea [6]; 28° C.),Control value (Sphaerotheca fuliginea [7]),Control value (Sphaerotheca fuliginea [8]),Control value (Sphaerotheca fuliginea [9]),Control value Pyriofenone (Sphaerotheca fuliginea [1]; pyriofenone 90 g ai/ha),Control value Pyriofenone (Sphaerotheca fuliginea [2]; pyriofenone 90 g ai/ha),Control value Pyriofenone (Sphaerotheca fuliginea [3]; pyriofenone 90 g ai/ha),Control value Pyriofenone (Sphaerotheca fuliginea [4]; pyriofenone 90 g ai/ha),Control value Pyriofenone (Sphaerotheca fuliginea [5]; pyriofenone 90 g ai/ha),Control value (Sphaerotheca fuliginea [10]),Control value Dosage (g ai/ha) 90 (Oidiopsis sicula Scalia; pyriofenone 90 g ai/ha),Control value Dosage (g ai/ha) 110 (Oidiopsis sicula Scalia; pyriofenone 110 g ai/ha),Control value (Sphaerotheca fuliginea [11]),Control value (Sphaerotheca fuliginea [12])
"COc1cc(C)c(C(=O)c2c(OC)ccc(Br)c2C)c(OC)c1OC [Metrafenone, metrafenone]",65.7,60.2,65,60,75,–,–,–,–,–,–,–,–,–,–,–,–,–,–,–
"COc1cc(C)c(C(=O)c2c(OC)ncc(Cl)c2C)c(OC)c1OC [Pyriofenone, pyriofenone]",–,–,–,–,–,53,80,55,55,30,63,71.6,65,65,70,12,7.6,6.1,68,40
